Positions count from the first letter of the chain named. Like-named read-outs stand apart in the source and are kept apart here.
What was measured:
GPX4 = target: T1, GPX4 (Homo sapiens, UniProt P36969); test: Western blot assay of GPX4 protein degradation; type: cell-based
T1 sequence (P36969 1-170 isoform P36969-2): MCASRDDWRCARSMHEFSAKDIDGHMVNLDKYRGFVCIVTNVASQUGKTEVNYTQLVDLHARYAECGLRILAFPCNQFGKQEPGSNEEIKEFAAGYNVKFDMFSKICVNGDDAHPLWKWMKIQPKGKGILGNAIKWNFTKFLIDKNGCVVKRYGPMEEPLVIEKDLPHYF
Description: HT-1080 cells were seeded at 250,000 cells per well in a 6-well plate and incubated 37° C. with 5% CO2 overnight. The next day, cells were treated with vehicle alone or the compound of interest with 10 μM Fer-1 for 10 hours. Compounds were dissolved in DMSO. Cells were harvested with trypsin, washed with cold PBS, and lysed in RIPA buffer containing complete Protease Inhibitor Cocktail mini tablets (Roche) on ice for 30 minutes. Samples were then centrifuged at 14,000×g for 15 minutes at 4° C. Supernatants were collected and protein concentrations were determined using the BCA Protein Assay Kit (Pierce). Concentrations were normalized across samples and mixed with 6×SDS-PAGE Sample Loading Buffer (G Biosciences). Protein samples were then loaded on a NuPAGE Novex 4-12% Bis-Tris protein gel and run in MES buffer (Invitrogen) at 100V for 10 minutes then 200V for an additional 30 minutes. Proteins were transferred to a PVDF membrane (Invitrogen) using the iBlot 2 Gel Transfer Device. The membrane was washed with PBS, then blocked using Intercept Blocking Buffer (LICOR) for one hour. The membrane was then incubated with the primary antibodies in a 1:1 solution of blocking buffer and PBST (PBS+0.1% Tween 20) overnight at 4° C. […] The blot was imaged using a LI-COR Odyssey CLx IR scanner and results were quantified in ImageJ and GraphPad Prism 9.

GPX4^U46C = target: T2, GPX4^U46C (Homo sapiens, UniProt P36969, U73C); test: Protein crystallography of inhibitor complexes
T2 construct: made in house; host or cells: E. coli BL21-Gold (DE3)
T2 sequence (P36969 1-170 isoform P36969-2 U46C): T1 sequence (P36969 1-170 isoform P36969-2) with U46C
Description: GPX4^U46C was pre-incubated with covalent inhibitors before crystallization using conditions that were optimized with monitoring on intact protein MALDI MS analysis. 40 μM GPX4^U46C was incubated with 375 μM LOC1886 in the reaction buffer (20 mM Tris pH 9.0, 100 mM NaCl, 2 mM TCEP, 1.5% DMSO) at 37° C. for 4 hours and then 4° C. overnight. Covalent binding was confirmed using intact protein MALDI MS analysis. The protein-inhibitor complex was then exchanged into crystallization buffer (20 mM Tris, pH 8.0, 300 mM NaCl, 3 mM TCEP) and concentrated to 5 mg/mL.
Protein samples of GPX4^U46C in complex with LOC1886 were initially screened at the High-Throughput Crystallization Screening Center of the Hauptman-Woodward Medical Research Institute (HWI) (hwi.buffalo.edu/high-throughput-crystallization-center/) (Luft et al. 2003). The most promising crystal hits were reproduced using under oil micro batch method at 23° C. […]
GPX4^U46C with LOC1886 diffracted X-ray at the beamline NE-CAT24-ID-C to resolution 1.93 Å. […] The structure of each protein was determined by molecular replacement method using MOLREP program and the crystal structures of GPX4^U46C (PDB id: 7L8K) and GPX4^U46C-R152H (PDB id: 7L8L) were both used as search models for structure determination (Vagin and Teplyakov, 2010). […]

in vitro [1] = details: human, plasma
in vitro [2] = details: mouse, plasma
GPX1 = target: T3, GPX1 (Homo sapiens, UniProt P07203); test: GPX1 activity assay in cell lysates; type: biochemical; parameters: endogenous in cells; host or cells: A-673 cell lysate
T3 sequence (P07203 1-203): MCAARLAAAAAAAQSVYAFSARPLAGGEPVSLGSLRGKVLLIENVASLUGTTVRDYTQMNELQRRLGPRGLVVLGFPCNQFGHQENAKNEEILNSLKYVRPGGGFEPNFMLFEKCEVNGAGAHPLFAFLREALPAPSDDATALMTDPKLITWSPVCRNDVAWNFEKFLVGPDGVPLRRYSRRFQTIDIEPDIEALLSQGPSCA
Description: Determination of GPX1 activity in cell lysates was performed as previously described by Stolwijk et al. with some modifications (Stolwijk et al. 2020). GPX1 and GPX4 activity were not evaluated simultaneously in the same assay as in the published protocol to maximize signal-to-noise with the GPX1 substrate. Again, NADPH consumption, as determined by the reduction in the absorbance at 340 nm, over time was monitored as a proxy for GPX1 activity, which, like GPX4, reduces its substrates using glutathione as a reductant. 100 μM hydrogen peroxide was selected as the GPX1 substrate in this assay. A-673 cell lysates and assay setup were performed as above for the GPX4 activity assay. All conditions were tested in triplicate. Buffer-only controls and controls without substrate containing only Milli-Q water vehicle were performed to assess background and baseline signal. GPX1 activity was calculated as reported by Stolwijk et al. 2020 and results were analyzed in GraphPad Prism 9.

SU-DHL-5 = test: Cytotoxicity in DLBCL cells, SU-DHL-5; type: cell-based, human; details: for IC50: SU-DHL-5
SU-DHL-2 = test: Cytotoxicity in DLBCL cells, SU-DHL-2; type: cell-based, human; details: for IC50: SU-DHL-2
U-2932 = test: Cytotoxicity in DLBCL cells, U-2932; type: cell-based, human; details: for IC50: U-2932
[3] = Fer-1 1.0 μM, read-out: IC50 (μM) with Fer-1

Cn1nc(C(=O)NC(C)(C)COC(=O)CCl)c2ccc(Br)cc21 [QW-314]
GPX4 protein degradation, result in words (GPX4): induces GPX4 protein degradation in HT-1080 cells
binding site in co-crystal structure (GPX4^U46C): covalently binds to the mutant cysteine in the U46 residue
half-life (in vitro [1]): 2.3 min
half-life (in vitro [2]): 40.7 min
GPX1 activity assay effect (GPX1): no inhibitory effect
selectivity for GPX4 over GPX1, result in words (GPX1): high selectivity for GPX4 over GPX1

COc1cccc2[nH]c(C(=O)n3ccnc3)cc12 [LOC1886, reference compound]
GPX4 protein degradation, result in words (GPX4; HT-1080 cells): inhibits and degrades GPX4
binding site in co-crystal structure (GPX4^U46C): bound to allosteric sites C66 and C10 of GPX4^U46C
half-life (in vitro [1]): 10.8 min
half-life (in vitro [2]): < 2 min

COC(=O)c1ccc([C@@H]2c3[nH]c4ccccc4c3C[C@@H](C(=O)OC)N2C(=O)CCl)cc1 [RSL3, reference compound]
Selectivity^a (fold) (SU-DHL-5): 5 fold
IC50 (SU-DHL-5; 24 h, read-out: IC50): 0.4 µM
IC50 (SU-DHL-5; [3]): 2.15 µM
Selectivity^a (fold) (SU-DHL-2): 8 fold
IC50 (SU-DHL-2; 24 h, read-out: IC50): 0.18 µM
IC50 (SU-DHL-2; [3]): 1.5 µM
Selectivity^a (fold) (U-2932): >1000 fold
IC50 (U-2932; 24 h, read-out: IC50): 0.16 µM
IC50 (U-2932; [3]): 316 µM

CC(C)(COC(=O)CCl)NC(=O)c1nn(Cc2cc(Cl)cc(Cl)c2)c2cc(-c3ccc(N4CCOCC4)c(Cl)c3)ccc12 [QW-852]
Selectivity^a (fold) (SU-DHL-5): >1000 fold
IC50 (SU-DHL-5; [3]): 1.58 µM
Selectivity^a (fold) (SU-DHL-2): >1000 fold
IC50 (SU-DHL-2; 24 h, read-out: IC50): 0.002 µM
IC50 (SU-DHL-2; [3]): 4.95 µM
Selectivity^a (fold) (U-2932): 6 fold
IC50 (U-2932; 24 h, read-out: IC50): 1.37 µM
IC50 (U-2932; [3]): 7.9 µM

CC(C)(COC(=O)CCl)NC(=O)c1cc2ccc(Br)cc2[nH]1 [QW-156]
GPX1 inhibition (GPX1; 200 μM): approximately 30%
